Test results reported in patent publication US20250295679A1, “Compositions and Dosage Forms for Treatment of HPV Infection and HPV-Induced Neoplasia” (priority 2022, published 2025).

How the values were obtained:
[1] = Solubility in buffers, water and simulated vaginal fluid at 37° C.; conditions: 37° C., 2 h
Experimental: About 4 mg of Compound I Pattern 1 was added into 2 mL of buffer solution.
(§1) Solubility was tested in five media, pH 3.0 citrate buffer, pH 4.5 acetate buffer, pH 6.8 phosphate buffer, water, simulated vaginal fluid (pH 4.2) at 37° C. for 0.5 h and 2 h.
The salt amount used is equivalent to 10 mg anhydrous free base. […] The obtained clear solutions were analyzed by pH meter for pH, and solubility was determined by observation.
as §1

[2] = Hygroscopicity by DVS at 25° C.; assay type: physicochemical; conditions: for XRPD after DVS test: 25° C.
Experimental: Hygroscopicity was investigated by DVS at 25° C., using the following method: • Method: 40-0-95-0-40% RH, dm/dt=0.002

[3] = Ex vivo permeation and penetration across porcine vaginal tissue (Franz diffusion cell, IVPT); assay type: in vitro ADME; conditions: porcine vaginal tissue, FIG. 116; 0.1% Compound II gel; 1% and 3% ABI-1968 formulations
Source text: FIG. 116 is an in vitro tissue permeation test in vaginal tissue comparing Compound II to ABI-1968. […] Bars B and C show the tissue penetration of a 0.1% Compound II gel in human cervical tissue. […] This may be a contributing factor to the performance of ABI-1968 in clinical studies. […] This is described in Example 41.
Freshly harvested porcine vaginal tissue was procured from local slaughterhouse in an ice box. The vaginal tissue was cut open to expose the mucosal surface and tissue was cleaned by gentle flow of PBS pH 7.4. The porcine vaginal tissue was cut into circular portions (approximately 2 cm^2) with help of a […] punch.
The circular portion of tissue was sandwiched between two chambers of a Franz diffusion cell with an active diffusion area of 1 cm^2, and the mucosal layer was exposed to the donor chambers. The resistance across porcine vaginal tissue was measured using a wave form generator to ensure the integrity of the tissue segment used for the permeation study. Porcine vaginal tissue with resistance of ≥3 KΩ·cm^2 was used for study. The receiver chamber was filled with 8 ml of 5% solutol PBS 7.4 pH, which was stirred at 600 rpm with a 3 mm magnetic stir bar and the temperature was maintained at 37° C. with a circulating water bath.
The ˜200 mg of gel was filled into tared 1 mL syringe and gel was dispensed to donor chamber. The gel was spread on to mucosal surface with pre weighed applicator. After loading and spreading of the gel onto surface of mucosal surface, the weight of 1 mL syringe and applicator was noted to determine the exact amount of gel loaded into donor chamber.
Time course (2 h, 4 h and 8 h) porcine vaginal permeation studies were performed. After loading gel, 500 μL samples were withdrawn from the receiver compartment at different time intervals and each time an equal volume of fresh receiver media was used to replace withdrawn samples. The sample withdrawn at each time interval were stored immediately in −20° C. until analysis. After 2, 4 and 8 h, the formulation was removed from the donor chamber with help of syringe and cleaned with cotton swab. The tissue was removed and washed gently with wash solution (50% methanol in water) 5 times and alternatively cleaning with cotton swab.
An 8 mm punch of active diffusion area of washed porcine vaginal tissue was removed, weighed and transferred into a tube. This tube was immediately placed into dry ice for ˜15 min. After specified time, tissue was removed and placed in precooled dish. The tissue was minced into smaller pieces on a dish with a precooled surgical blade. The minced tissue was transferred to sample tubes and dish was rinsed with 1 ml of 5% solutol in PBS 7.4 pH and transferred to same tissue sample tube. These tubes were stored in −70° C. until analysis. […]

[4] = Polymorph screening by equilibration in solvents; assay type: physicochemical
[5] = Bulk (accelerated) stability, one week, HPLC and XRPD; conditions: for Bulk (HPLC) Purity / Bulk Color: 1 week
Experimental: Bulk stability: Accelerated stability experiments were conducted at 25° C./92% RH and 40° C./75% RH in an open container, 60° C. in a tight container for one week.
Samples were characterized by XRPD and HPLC and inspected for color change.
Accelerated stability experiments were conducted at 25° C./92% RH in an open container, at 40° C./75% RH in an open container, and at 60° C. in a tight container for one week.

[6] = BS1: solid state, 25° C./92% RH, open container
[7] = BS2: solid state, 40° C./75% RH, open container
[8] = BS3: solid state, 60° C., tight container

In the case of CCOC(=O)[C@H](C)N[P@@](=O)(COCCn1cnc2c(OC)nc(N)nc21)OCc1ccccc1.O=C(O)/C=C/C(=O)O [Compound II], the “pH of solution at 2 hours” value ([1]; ES1: pH 3.0, 100 mM citrate buffer) is reported as 2.85, the “pH of solution at 2 hours” value ([1]; ES2: pH 4.5, 50 mM acetate buffer) is reported as 4.2 and the “pH of solution at 2 hours” value ([1]; ES3: pH 6.8, 50 mM phosphate buffer) is reported as 6.47. For the same compound, the “pH of solution at 2 hours” value ([1]; ES4: Water) was 2.87, the “pH of solution at 2 hours” value ([1]; ES5: Simulated vaginal fluid (pH adjusted by 0.1N NaOH)) was 5.79 and the “Desorp. (%) Cycle 1” value ([2]; DVS 25° C., 0% RH) was 0.03%. The “Desorp. (%) Cycle 2” value ([2]; DVS 25° C., 0% RH) was 0.03%, the “Sorp. (%) Cycle 1” value ([2]; DVS 25° C., 0% RH) was 0.03% and the “Sorp. (%) Cycle 2” value ([2]; DVS 25° C., 0% RH) was 0.03%. For the same compound, the “Desorp. (%) Cycle 1” value ([2]; DVS 25° C., 10% RH) was 0.05%, the “Desorp. (%) Cycle 2” value ([2]; DVS 25° C., 10% RH) was 0.05% and the “Sorp. (%) Cycle 1” value ([2]; DVS 25° C., 10% RH) was 0.04%. The “Sorp. (%) Cycle 2” value ([2]; DVS 25° C., 10% RH) was 0.04%, the “Desorp. (%) Cycle 1” value ([2]; DVS 25° C., 20% RH) was 0.08% and the “Desorp. (%) Cycle 2” value ([2]; DVS 25° C., 20% RH) was 0.07%. For the same compound, the “Sorp. (%) Cycle 1” value ([2]; DVS 25° C., 20% RH) was 0.06%, the “Sorp. (%) Cycle 2” value ([2]; DVS 25° C., 20% RH) was 0.06% and the “Desorp. (%) Cycle 1” value ([2]; DVS 25° C., 30% RH) was 0.10%. For the same compound, the “Desorp. (%) Cycle 2” value ([2]; DVS 25° C., 30% RH) was 0.08%, the “Sorp. (%) Cycle 1” value ([2]; DVS 25° C., 30% RH) was 0.08% and the “Sorp. (%) Cycle 2” value ([2]; DVS 25° C., 30% RH) was 0.07%. The “Desorp. (%) Cycle 1” value ([2]; DVS 25° C., 40% RH) was 0.17%, the “Desorp. (%) Cycle 2” value ([2]; DVS 25° C., 40% RH) was 0.10% and the “Sorp. (%) Cycle 1” value ([2]; DVS 25° C., 40% RH) was 0.10%. For the same compound, the “Sorp. (%) Cycle 2” value ([2]; DVS 25° C., 40% RH) was 0.09%, the “Desorp. (%) Cycle 2” value ([2]; DVS 25° C., 50% RH) was 0.12% and the “Sorp. (%) Cycle 1” value ([2]; DVS 25° C., 50% RH) was 0.12%. For the same compound, the “Desorp. (%) Cycle 2” value ([2]; DVS 25° C., 60% RH) was 0.14%, the “Sorp. (%) Cycle 1” value ([2]; DVS 25° C., 60% RH) was 0.13% and the “Desorp. (%) Cycle 2” value ([2]; DVS 25° C., 70% RH) was 0.18%. The “Sorp. (%) Cycle 1” value ([2]; DVS 25° C., 70% RH) was 0.16%, the “Desorp. (%) Cycle 2” value ([2]; DVS 25° C., 80% RH) was 0.21% and the “Sorp. (%) Cycle 1” value ([2]; DVS 25° C., 80% RH) was 0.19%. For the same compound, the “Desorp. (%) Cycle 2” value ([2]; DVS 25° C., 90% RH) was 0.24%, the “Sorp. (%) Cycle 1” value ([2]; DVS 25° C., 90% RH) was 0.23% and the “Desorp. (%) Cycle 2” value ([2]; DVS 25° C., 95% RH) was 0.24%. The “Sorp. (%) Cycle 1” value ([2]; DVS 25° C., 95% RH) was 0.24%, the Hygroscopicity ([2]; DVS at 25° C., in words) was “slightly hygroscopic” and the “XRPD after DVS test” value ([2]; after DVS 40-0-95-0-40% RH) was “No form change”. For the same compound, the “XRPD after DVS test” value ([2]; after humidity cycle 40-0-95-0-40% RH, listed as Compound II Pattern 1, monofumarate) was “No form change”, the “XRPD after DVS test” value ([2]; after humidity cycle 40-0-95-0-40% RH, monofumarate) was “does not change” and the Water uptake ([2]; up to / in 95% RH, DVS 25° C.) was “about 0.2%”. For the same compound, the “Tissue penetration” value [3] was “high tissue penetration”, the “Crystal modification after 1 week equilibration at 25° C.” value (from here on “Crystal modification”) ([4]; PS1: IPA) was “Compound II Pattern 1” and the “Crystal modification” value ([4]; PS2: Heptanes) was “Compound II Pattern 1”. The “Crystal modification” value ([4]; PS3: Water) was “Compound II Pattern 1”, the “Crystal modification” value ([4]; PS4: ACN) was “Compound II Pattern 2” and the “Crystal modification” value ([4]; PS5: MEK) was “Compound II Pattern 3”. The “Crystal modification” value ([4]; PS6: Acetone) was “Compound II Pattern 1”, the “Crystal modification” value ([4]; PS7: IPA/heptanes (3/10, v/v)) was “Compound II Pattern 1” and the “Crystal modification” value ([4]; PS8: water/ACN (2.9/97.1, v/v)) was “Compound II Pattern 2”. The “Crystal modification” value ([4]; PS9: IPA/MTBE (1/3, v/v)) was “Compound II Pattern 1”, the “Crystal modification” value ([4]; PS10: EA/toluene (1/3, v/v)) was “Compound II Pattern 1” and the “Dissociation of the salt during equilibration experiments” value ([4]; equilibration in solvents, 1 week, 25° C.) was “no dissociation was observed”. For the same compound, the “Stability after exposure to the three conditions” value ([5]; 25° C./92% RH open, 40° C./75% RH open, 60° C. tight container, one week) was “good physical and chemical stability”, the “Bulk (HPLC) Purity” value [5, 6] was 99.5% and the “Bulk Color” value [5, 6] was “No change”. For the same compound, the “Bulk (HPLC) Purity” value [5, 7] was 99.4%, the “Bulk Color” value [5, 7] was “No change” and the “Bulk (HPLC) Purity” value [5, 8] was 99.7%. For the same compound, the “Bulk Color” value [5, 8] was “No change” and the “HPLC purity, Initial” value ([5]; initial chemical purity before storage) was 99.7%.
